Patent US20260324636A1, “COMPOSITION FOR PROVIDING PLANT WITH STRESS RESISTANCE” (KIRIN HOLDINGS KABUSHIKI KAISHA, priority 2022, published 2026)

Assays:
OsHSFA2E = OsHSFA2E gene expression by real-time PCR, Example 6; format: in vivo, rice; conditions: Oryza sativa; 0.5 mM in medium, 30° C. for 2 hours, aboveground part; read-out: OsHSFA2E expression level, increase vs control
Description: In order to design primers for the target genes necessary for gene expression analysis by real-time PCR, homologs of Arabidopsis thaliana high-temperature-responsive genes in rice were searched for. The amino acid sequence of Arabidopsis thaliana HSFA2 (AGI code: AT2G26150) was obtained from TAIR (https://www.arabidopsis.org/), and the nucleotide sequence of the homolog was obtained using RAP-DB (https://rapdb.dna.affrc.go.jp/). As a reference gene, the nucleotide sequence of the homolog of Arabidopsis thaliana ACTIN2 (AGI code: AT3G18780) was also obtained. Homolog genes in rice were designated as OsHSFA2E and OsACT1, respectively.
The materials as used in Example 3 were used.
The method as employed in Example 3 was employed.
The rice samples subjected to germination for 3 days were inoculated into a liquid medium consisting of a ½ Murashige and Skoog Plant Salt Mixture. Specifically, a liquid medium was dispensed at 3 ml/well to a 12-well microplate (IWAKI), and 3 samples were transferred to each well. N-acetylglutamic acid was applied to each well to the final concentration of 0.5 mM in the medium, incubation was performed at 30° C. for 2 hours, and RNA was extracted from the aboveground part using the RNeasy Plant Mini Kit. […]
(§1) Thereafter, the relative expression level of the target gene upon N-acetylglutamic acid treatment was calculated by the ΔΔCt method.

ZAT10 = ZAT10 gene expression by real-time PCR, Example 11; format: in vivo; conditions: Arabidopsis thaliana; 0.4 mM, 22° C. for 2 hours; read-out: ZAT10 expression level, increase vs control
Description: The materials as used in Example 1 were used.
The medium as used in Example 1 was used.
To the Arabidopsis thaliana plants grown for 7 days in the same manner as in Example 1, 0.4 mM N-acetylglutamic acid or an equivalent amount of sterile water was added, and the plants were incubated at 22° C. for 2 hours. After incubation for 2 hours, the samples were frozen with liquid nitrogen, and RNA was extracted using the RNeasy Plant Mini Kit […].
cDNA that would be necessary as a real-time PCR template was synthesized from the RNA obtained. 1000 ng total RNA was used for each sample, and cDNA was synthesized using the Verso cDNA Synthesis Kit (Thermo Fischer Scientific). The synthesized cDNA was diluted to 5-fold with sterile distilled water and subjected to real-time PCR. For real-time PCR, a reaction solution containing ZAT10 (AGI code: AT1G27730) and ZAT12 (AGI code: AT5G59820) as the target genes, PP2AA3 (AGI code: AT1G13320) as the reference gene, and TB Green Ex Taq II (TakaRa) was prepared. PCR was performed with the use of the LightCycler® 480 System (Roche) with the number of amplification cycles of 50. The primers shown below were used.
Thereafter, the relative expression levels of the target genes upon N-acetylglutamic acid treatment were calculated by the ΔΔCt method using the Cp values obtained by real-time PCR.

H1HSP17.6C = H1HSP17.6C gene expression by real-time PCR, Example 7; format: in vivo, hop; conditions: 1 mM in medium, 20° C. for 2 hours, leaves; read-out: H1HSP17.6C expression level, increase vs control
Description: In order to design primers for the target genes necessary for gene expression analysis by real-time PCR, homologs of Arabidopsis thaliana high-temperature-responsive genes in hop were searched for. The amino acid sequences of Arabidopsis thaliana HSFA2 (AGI code: AT2G26150) and HSP17.6C (AGI code: AT1G53540) were obtained from TAIR (https://www.arabidopsis.org/), and the nucleotide sequences of the gene homologs were obtained using Hopbase (https://hopbase.cgrb.oregonstate.edu/). […] As the reference gene, the nucleotide sequence of the homolog of Arabidopsis thaliana EF1α (AGI code: AT1G18070) was obtained. The hop homolog genes were designated as H1HSFA2, H1HSP17.6C, and HIEF1α, respectively.
The materials as used in Example 4 were used.
The methods as employed in Example 4 were employed.
The leaves in the first and the second nodes from the apical buds of the tissue-cultured seedlings were sampled 1.5 months after the initiation of subculture and inoculated into a liquid medium consisting of a ½ Murashige and Skoog Plant Salt Mixture and 2 (w/v) % glucose. Specifically, a liquid medium was dispensed at 5 ml/well to a 6-well microplate (IWAKI), and 5 hop leaves were mounted thereon. […]
as §1

CC(=O)N[C@@H](CCC(=O)O)C(=O)O [N-acetylglutamic acid]
fold induction at 500 µM (OsHSFA2E): 1.4 | fold induction at 400 µM (ZAT10): 28 | fold induction at 1000 µM (H1HSP17.6C): 1.8
